Experimental data published in PubChem BioAssay (NCI).
Several values for one entry are separate records, joined by “and”; a condition that tells them apart may be missing. Identical values can stand only once.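 Assay format: 96-well plates, 48-hour exposure. GI50 is the concentration that inhibits growth by half. TGI is the concentration that stops growth completely.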

Experiments:
Assay in all cases: NCI tumour cell line growth inhibition, 48 h; in the data active means GI50 below about 0.43 µM; inactive means the rest
CCRF-CEM leukemia = tested on: CCRF-CEM leukemia
DMS 273 small cell lung = tested on: DMS 273 small cell lung
HCT-15 colon = tested on: HCT-15 colon
HOP-62 NSCLC = tested on: HOP-62 NSCLC
HOP-92 NSCLC = tested on: HOP-92 NSCLC
HS 578T breast = tested on: HS 578T breast
HT29 colon = tested on: HT29 colon
MALME-3M melanoma = tested on: MALME-3M melanoma
MDA-MB-231 breast = tested on: MDA-MB-231 breast
NCI-H460 lung = tested on: NCI-H460 lung
OVCAR-3 ovarian = tested on: OVCAR-3 ovarian
P388/ADR leukemia = tested on: P388/ADR leukemia
PC-3 prostate = tested on: PC-3 prostate
SNB-19 CNS = tested on: SNB-19 CNS
SR leukemia = tested on: SR leukemia
T-47D breast = tested on: T-47D breast

O=CC(NC(=O)N(CCCl)N=O)C(O)C(O)C(O)CO (configuration not stated)
625 µM and > 1250 µM and > 1230 µM: TGI (HOP-92 NSCLC)
> 1250 µM: TGI (HCT-15 colon) | TGI (HS 578T breast) | TGI (HT29 colon) | TGI (MDA-MB-231 breast) | TGI (OVCAR-3 ovarian) | TGI (PC-3 prostate) | TGI (T-47D breast)
inactive: GI50 (CCRF-CEM leukemia) 207 µM and 515 µM | GI50 (DMS 273 small cell lung) 218 µM and > 1250 µM | GI50 (HCT-15 colon) > 625 µM | GI50 (HOP-62 NSCLC) 115 µM | GI50 (HOP-92 NSCLC) 377 µM and > 1250 µM and 362 µM | GI50 (HT29 colon) > 625 µM | GI50 (MALME-3M melanoma) 131 µM | GI50 (NCI-H460 lung) 208 µM and 401 µM | GI50 (OVCAR-3 ovarian) > 625 µM | GI50 (P388/ADR leukemia) 34.5 µM and 65 µM | GI50 (SNB-19 CNS) 62.6 µM and 384 µM
> 623 µM: TGI (SR leukemia)
625 µM and > 1250 µM and > 1210 µM: TGI (DMS 273 small cell lung) | TGI (NCI-H460 lung)
360 µM and > 1250 µM: TGI (P388/ADR leukemia)
536 µM and 422 µM: TGI (HOP-62 NSCLC)
625 µM and > 1250 µM: TGI (CCRF-CEM leukemia) | TGI (SNB-19 CNS)
543 µM and 767 µM: TGI (MALME-3M melanoma)
